US7115658B2 (priority 2002, dated 2006)

molecular target: T1, Recombinant HCV polymerase (Hepatitis C virus genotype 1b, UniProt P26663); test: HCV Polymerase Inhibition Assay; type: biochemical; conditions: primer/template-directed transcription, 30 minutes at 30° C.; category symbol
T1 construct: 2.5 pmoles (0.15 μg) HCV polymerase protein
Experimental: The above-described compounds were tested for activity with HCV polymerase. Recombinant HCV polymerase was tested for its ability to perform primer/template-directed transcription in assays that contained 30 mM tris-HCl pH 7.2, 10 mM MgCl2, 20 mM NaCl, 1 mM Dithiothreitol (DTT), 0.05% Tween-20, 1% glycerol, 5 pmoles biotin-dG12 (primer), 0.5 pmoles poly(rC)300 (template), 1 μM GTP, 0.1–0.3 uCi α-^32P-GTP, and 2.5 pmoles (0.15 μg) HCV polymerase protein in a final volume of 75 μL. Reactions were initiated by addition of enzyme and incubated 30 minutes at 30° C. Reactions were stopped by addition of 33 mM EDTA, and polynucleotide products were collected by filtration through Diethylaminoethyl (DE) Filtermat papers (Wallac). Unincorporated triphosphate was removed by washing the filters with 5% dibasic sodium phosphate. The filters were counted in a Packard Tri-Lux Microbeta scintillation counter (Packard Bioscience, Meriden, Conn.). Compounds to be tested were added at various concentrations, e.g., 1 μm to 50 μm, from stocks in 10% DMSO-water (final DMSO is 1% in reaction).
IC50 values were estimated from the primary cpm data (collected in triplicate) using the formula: cpm (I)=cpm (no inhibitor)(1−([I]/([I]+IC50))). An IC50 value represents the concentration (in μM) of a compound that provides 50% inhibition of polymerase-directed transcription in the above assay. A percent inhibition value is expressed for a compound where it was impractical to calculate an IC50 value with available data. If the IC50 estimated by the above equation was less than 200 nM, it was recalculated using the following equation, which takes into account the enzyme concentration (30 nM) in the assay: cpm(I)=cpm(no inhibitor)(1−((((I+IC50+30e−9)−sqrt(((I+IC50+30e−9)^2)−4×30e−9×I)))/((2) (30e−9))). Curve fitting was performed using the program KaleidaGraph (Synergy Software, Reading, Pa.).

T1 sequence (P26663 2420-3010): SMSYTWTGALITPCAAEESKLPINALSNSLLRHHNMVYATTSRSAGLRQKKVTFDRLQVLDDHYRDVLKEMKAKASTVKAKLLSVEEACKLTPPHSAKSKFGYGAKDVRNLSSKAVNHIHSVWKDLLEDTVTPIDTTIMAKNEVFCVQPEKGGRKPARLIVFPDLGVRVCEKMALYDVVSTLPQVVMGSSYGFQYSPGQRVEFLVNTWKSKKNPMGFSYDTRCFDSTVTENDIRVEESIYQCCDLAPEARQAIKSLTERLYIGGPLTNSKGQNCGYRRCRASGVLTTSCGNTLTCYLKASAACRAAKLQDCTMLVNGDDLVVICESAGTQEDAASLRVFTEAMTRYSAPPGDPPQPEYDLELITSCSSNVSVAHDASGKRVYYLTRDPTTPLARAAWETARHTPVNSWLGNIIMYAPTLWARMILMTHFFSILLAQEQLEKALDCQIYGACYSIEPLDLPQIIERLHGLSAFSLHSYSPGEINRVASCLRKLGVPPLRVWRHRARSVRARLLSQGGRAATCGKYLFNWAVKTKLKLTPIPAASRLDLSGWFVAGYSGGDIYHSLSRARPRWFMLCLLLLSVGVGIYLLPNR

Row | SMILES | IC50 [µM]
1 | O=C1CC(=O)OC(CCc2ccc(F)c(Cl)c2)(C2CCCC2)C1 (stereo not drawn) [Example 31, 6-[2-(3-Chloro-4-fluoro-phenyl)-ethyl]-6-cyclopentyl-dihydro-pyran-2,4-dione] | 1 to 10
2 | O=C1CC(=O)OC(CCc2ccc3c(c2)OCCO3)(C2CCCC2)C1 (stereo not drawn) [Example 32, 6-Cyclopentyl-6-[2-(2,3-dihydro-benzo[1,4]dioxin-6-yl)-ethyl]-dihydro-pyran-2,4-dione] | 1 to 10
3 | CC(C)Oc1cccc(CCC2(C3CCCC3)CC(=O)CC(=O)O2)c1 (stereo not drawn) [Example 33, 6-Cyclopentyl-6-[2-(3-isopropoxy-phenyl)-ethyl]-dihydro-pyran-2,4-dione] | 1 to 10
4 | COC1=CC(=O)OC(CCc2cccc(C(C)C)c2)(C2CCCC2)C1 (stereo not drawn) [Example 34, 6-Cyclopentyl-6-[2-(3-isopropyl)-ethyl]-4-methyoxy-5,6-dihydro-pyran-2-one] | 10 to 50
5 | Cc1cccc(CCC2(C3CCCC3)CC(=O)CC(=O)O2)c1 (stereo not drawn) [Example 36, 6-Cyclopentyl-6-(2-m-tolyl-ethyl)-dihydro-pyran-2,4-dione] | 10 to 50
6 | Cn1cccc(CCC2(C3CCCC3)CC(=O)CC(=O)O2)c1=O (stereo not drawn) [Example 37, 6-Cyclopentyl-6-[2-(1-methyl-2-oxo-1,2-dihydro-pyridin-3-yl)-ethyl]-dihydro-pyran-2,4-dione] | > 50
7 | COc1ccc(CCC2(C3CCCC3)CC(=O)CC(=O)O2)c(OC)c1 (stereo not drawn) [Example 38, 6-Cyclopentyl-6-[2-(2,4-dimethoxy-phenyl)-ethyl]-dihydro-pyran-2,4-dione] | 10 to 50
8 | COc1cc(OC)c(CCC2(C3CCCC3)CC(=O)CC(=O)O2)cc1Cl (stereo not drawn) [Example 39, 6-[2-(5-chloro-2,4-dimethoxyphenyl)ethyl]-6-cyclopentyldihydro-2H-pyran-2,4(3H)-dione] | < 1
9 | CC(C)c1ccc(CCC2(C3CCCC3)CC(=O)CC(=O)O2)cc1 (stereo not drawn) [Example 40, 6-Cyclopentyl-6-[2-(4-isopropyl-phenyl)-ethyl]-dihydro-pyran-2,4-dione] | 1 to 10
10 | CC(C)Oc1ccc(CCC2(C3CCCC3)CC(=O)CC(=O)O2)cc1 (stereo not drawn) [Example 41, 6-Cyclopentyl-6-[2-(4-isopropoxy-phenyl)-ethyl]-dihydro-pyran-2,4-dione] | 1 to 10
11 | CCOc1c(F)cc(CCC2(C3CCCC3)CC(=O)CC(=O)O2)cc1F (stereo not drawn) [Example 42] | 1 to 10
12 | COc1c(F)cc(CCC2(C3CCCC3)CC(=O)CC(=O)O2)cc1F (stereo not drawn) [Example 43, 6-Cyclopentyl-6-[2-(3,5-difluoro-4-methoxy-phenyl)-ethyl]-dihydro-pyran-2,4-dione] | 1 to 10
13 | CCOc1ccc(CCC2(C3CCCC3)CC(=O)CC(=O)O2)cc1Cl (stereo not drawn) [Example 44] | < 1
14 | COc1ccc(Oc2cccc(CCC3(C4CCCC4)CC(O)=CC(=O)O3)c2)cc1 (stereo not drawn) [Example 45, 6-cyclopentyl-6-{2-[3-(4-methoxyphenoxy)phenyl]ethyl}-4-hydroxy-5,6-dihydro-2H-pyran-2-one] | 10 to 50
15 | O=C1C=C(O)CC(CCc2cc3ccccc3o2)(C2CCCC2)O1 (stereo not drawn) [Example 46, 6-[2-(1-benzofuran-2-yl)ethyl]-6-cyclopentyl-4-hydroxy-5,6-dihydro-2H-pyran-2-one] | 10 to 50
16 | O=C1C=C(O)CC(CCc2ccc(Oc3ccccc3)cc2)(C2CCCC2)O1 (stereo not drawn) [Example 47, 6-cyclopentyl-6-[2-(4-phenoxyphenyl)ethyl]-4-hydroxy-5,6-dihydro-2H-pyran-2-one] | 10 to 50
17 | Cc1noc(COc2ccc(CCC3(C4CCCC4)CC(O)=CC(=O)O3)cc2)n1 (stereo not drawn) [Example 48, 6-Cyclopentyl-6-(2-{4-[(3-methyl-1,2,4-oxadiazol-5-yl)methoxy]phenyl}ethyl)4-hydroxy-5,6-dihydro-2H-pyran-2-one] | 10 to 50
18 | Cc1noc(C)c1COc1ccc(CCC2(C3CCCC3)CC(O)=CC(=O)O2)cc1 (stereo not drawn) [Example 49, 6-Cyclopentyl-6-(2-{4-[(3,5-dimethylisoxazol-4-yl)methoxy]phenyl}ethyl)-4-hydroxy-5,6-dihydro-2H-pyran-2-one] | 10 to 50
19 | Cn1c(COc2ccc(CCC3(C4CCCC4)CC(O)=CC(=O)O3)cc2)nc2ccccc21 (stereo not drawn) [Example 50, 6-Cyclopentyl-6-(2-{4-[(1-methyl-1H-benzimidazol-2-yl)methoxy]phenyl}ethyl)-4-hydroxy-5,6-dihydro-2H-pyran-2-one] | 10 to 50
20 | O=C1C=C(O)CC(CCc2ccc(OCc3ccc(Cl)c(Cl)c3)cc2)(C2CCCC2)O1 (stereo not drawn) [Example 51, 6-Cyclopentyl-6-(2-{4-[(3,4-dichlorobenzyl)oxy]phenyl}ethyl)-4-hydroxy-5,6-dihydro-2H-pyran-2-one] | 10 to 50

Row | SMILES | IC50 [µM]
21 | O=C1C=C(O)CC(CCc2ccc(OCc3ccc(C(F)(F)F)nc3)cc2)(C2CCCC2)O1 (stereo not drawn) [Example 52, 6-Cyclopentyl-6-[2-(4-{[6-(trifluoromethyl)pyridin-3-yl]methoxy}phenyl)ethyl]4-hydroxy-5,6-dihydro-2H-pyran-2-one] | 10 to 50
22 | O=C1CC(=O)OC(CCc2ccc(Cl)c(Cl)c2)(C2CCCC2)C1 (stereo not drawn) [Example 53, 6-Cyclopentyl-6-[2-(3,4-dichloro-phenyl)-ethyl]-dihydro-pyran-2,4-dione] | 1 to 10
23 | O=C1CC(=O)OC(CCc2ccc(F)c(F)c2)(C2CCCC2)C1 (stereo not drawn) [Example 54, 6-Cyclopentyl-6-[2-(3,4-difluoro-phenyl)-ethyl]-dihydro-pyran-2,4-dione] | 10 to 50
24 | CCCc1ccc(CCC2(C3CCCC3)CC(=O)CC(=O)O2)cc1 (stereo not drawn) [Example 55] | 1 to 10
25 | O=C1CC(=O)OC(CCc2ccc(OC3CCC3)c(F)c2)(C2CCCC2)C1 (stereo not drawn) [Example 56, 6-[2-(4-Cyclobutoxy-3-fluoro-phenyl)-ethyl]-6-cyclopentyl-dihydro-pyran-2,4-dione] | 1 to 10
26 | O=C1CC(=O)OC(CCc2ccc(OCC3CC3)c(F)c2)(C2CCCC2)C1 (stereo not drawn) [Example 57, 6-Cyclopentyl-6-[2-(4-cyclopropylmethoxy-3-fluoro-phenyl)-ethyl]-dihydro-pyran-2,4-dione] | 1 to 10
27 | COc1ccc(OCC2(C3CCCC3)CC(=O)CC(=O)O2)cc1 (stereo not drawn) [Example 58, 6-Cyclopentyl-6-(4-methoxy-phenoxymethyl)-dihydro-pyran-2,4-dione] | > 50
28 | CC(=O)c1ccc(CCC2(C3CCCC3)CC(=O)CC(=O)O2)cc1F (stereo not drawn) [Example 59, 6-[2-(4-Acetyl-3-fluoro-phenyl)-ethyl]-6-cyclopentyl-dihydro-pyran-2,4-dione] | 1 to 10
29 | CC1(c2ccc(CCC3(C4CCCC4)CC(=O)CC(=O)O3)cc2F)OCCO1 (stereo not drawn) [Example 60, 6-Cyclopentyl-6-{2-[3-fluoro-4-(2-methyl-[1,3]dioxolan-2-yl)-phenyl]-ethyl}-dihydro-pyran-2,4-dione] | 1 to 10
30 | CC(=O)c1ccc(CCC2(C3CCCC3)CC(=O)CC(=O)O2)cc1Cl (stereo not drawn) [Example 61, 6-[2-(4-Acetyl-3-chloro-phenyl)-ethyl]-6-cyclopentyl-dihydro-pyran-2,4-dione] | 1 to 10
31 | CC1(c2ccc(CCC3(C4CCCC4)CC(=O)CC(=O)O3)cc2Cl)OCCO1 (stereo not drawn) [Example 62, 6-{2-[3-Chloro-4-(2-methyl-[1,3]dioxolan-2-yl)-phenyl]-ethyl}-6-cyclopentyl-dihydro-pyran-2,4-dione] | < 1
32 | CC(=O)c1ccc(CCC2(C3CCCC3)CC(=O)CC(=O)O2)cc1 (stereo not drawn) [Example 63, 6-[2-(4-Acetyl-phenyl)-ethyl]-6-cyclopentyl-dihydro-pyran-2,4-dione] | 1 to 10
33 | CC(=O)c1cccc(CCC2(C3CCCC3)CC(=O)CC(=O)O2)c1 (stereo not drawn) [Example 64, 6-[2-(3-Acetyl-phenyl)-ethyl]-6-cyclopentyl-dihydro-pyran-2,4-dione] | 1 to 10
34 | COC(=O)c1ccc(CCC2(C3CCCC3)CC(=O)CC(=O)O2)cc1 (stereo not drawn) [Example 65, 4-[2-(2-Cyclopentyl-4,6-dioxo-tetrahydro-pyran-2-yl)-ethyl]-benzoic acid methyl ester] | 1 to 10
35 | CC1(c2ccc(CCC3(C4CCCC4)CC(=O)CC(=O)O3)cc2)CC(=O)CC(=O)O1 (stereo not drawn) [Example 66] | < 1
36 | O=C1CC(=O)OC(CCc2ccc(C(=O)N3CCC(O)CC3)cc2)(C2CCCC2)C1 (stereo not drawn) [Example 67, 6-Cyclopentyl-6-(2-[4-(4-hydroxy-piperidine-1-carbonyl)-phenyl]-ethyl}-dihydro-pyran-2,4-dione] | > 50
37 | O=C1CC(=O)OC(CCc2ccc(C(=O)N3CCOCC3)cc2)(C2CCCC2)C1 (stereo not drawn) [Example 68, 6-Cyclopentyl-6-{2-[4-(morpholine-4-carbonyl)-phenyl]-ethyl}-dihydro-pyran-2,4-dione] | > 50
38 | CC(C)COc1ccc(CCC2(C3CCCC3)CC(=O)CC(=O)O2)cc1F (stereo not drawn) [Example 70, 6-Cyclopentyl-6-[2-(3-fluoro-4-isobutoxy-phenyl)-ethyl]-dihydro-pyran-2,4-dione] | 1 to 10
39 | CCOc1ccc(CCC2(C3CCCC3)CC(=O)CC(=O)O2)cc1F (stereo not drawn) [Example 71, 6-Cyclopentyl-6-[2-(4-ethoxy-3-fluoro-phenyl)-ethyl]-dihydro-pyran-2,4-dione] | < 1
